In US7285555B2, “6-aryl-7-halo-imidazo[1,2-a]pyrimidines as anticancer agents” (Wyeth Holdings Corporation, priority 2003, dated 2007):

Legend:
COLO 205 cells = assay: MTS cytotoxicity test procedure with COLO 205 cells; format: cell-based; settings: Homo sapiens, 72 h, MTS assay, three days of culture
Procedure: The MTS assay, which is sold in kit form by Promega (Madison, Wis.; CellTiter 96 AQueous Non-Radioactive Cell Proliferation Assay), is based on the conversion by viable cells, but not by dead cells, of the tetrazolium salt, MTS (3-(4,5-dimethylthiazol-2-yl)-5-(3-carboxymethoxyphenyl)-2-(4-sulphophenyl)-2H-tetrazolium, inner salt), into a water-soluble colored formazan which is detected by spectrophotometry. Compounds are tested at nine concentrations, in order to determine IC50 values. For the test procedure, cells are harvested by trypsinization (or, in the case of non-adherent cells, by simple resuspension), washed, counted and distributed to wells of 96-well flat-bottom microtiter plates at 1000 cells per well in 200 μL of medium. In addition, one row of wells on a separate plate receives cells as above (“time 0” plate). All plates are incubated at 370 in humidified 5% CO2 in air for about 24 hr.
On day 2, compounds for test are diluted and added to wells. Compounds are dissolved in DMSO at 10 mg/mL. For each compound, nine serial 2-fold dilutions are prepared in DMSO. Ten μL of each dilution in DMSO is transferred to 100 μL of medium, mixed well, and then 5 μL of this dilution is transferred in quadruplicate to wells containing cells. The final high concentration of each compound is typically 1-5 μM. Plates are returned to the incubator for three days. At the time of drug addition to the experimental plates, the MTS assay is run on the “time 0” plate. This gives the “time 0 MTS value” which is related to the number of viable cells per well at the time of drug addition.
After three days of culture with test compounds (day 5 overall), the MTS assay is done on all wells of the experimental plates. The absorbance values of the quadruplicate sample wells are averaged and divided by the average of the “time 0” values. The average of control wells without drug, divided by the average “time 0” value, gives the maximal relative increase in MTS color yield due to cell growth during the final three days of culture. The average of control wells with high drug concentration, divided by the “time 0” value, gives the minimal relative color yield for cells that were completely killed. The nine values for each compound are plotted against concentration, and the concentration that produces a relative color yield half way between the maximum and minimum is taken as the IC50 value.
COLO 205 is a human colon carcinoma cell line that is used for comparative testing of the examples of this invention and several reference compounds (Table 1). This line is sensitive to paclitaxel and vincristine.

KB cells = assay: SRB cytotoxicity test procedure with KB cells; format: cell-based; settings: Homo sapiens, SRB assay, means of 2 independent experiments
From the text: Human cancer cell lines, unless otherwise noted, are obtained from the American Type Culture Collection (Rockville, Md.). […]
The SRB standard cytotoxicity assay is done according to previously reported methods (Discafani, C. M., Carroll, M. L., Floyd Jr., M. B. F., Hollander, I. J., Husain, Z., Johnson, B. D., Kitchen, D., May, M. K., Malo, M. S., Minnick Jr., A. A., Nilakantan, R., Shen, R., Wang Y-F., Wissner, A., Greenberger, L. M. Irreversible inhibition of epidermal growth factor receptor tyrosine kinase with in vivo activity by N-[4-[3-bromophenyl)amino]-6-quinaxolinyl]-2-butynamide (CL-387,785). […] Absorbance is read on a Victor V multi-label plate reader (Perkin Elmer, Gaithersburg, Md.). […]

KB-8-5 cells = assay: SRB cytotoxicity test procedure with KB-8-5 cells; format: cell-based, human; settings: SRB assay
From the text: (§1) Human cancer cell lines, unless otherwise noted, are obtained from the American Type Culture Collection (Rockville, Md.). The following drug-sensitive parental cell lines, and their derived drug-resistant counterparts, are obtained from the originators as listed: (a) S1 (parental line from a subclone of human colon carcinoma line LS174T) and derived S1-M1-3.2 (herein called S1-M1) which expresses the MXR drug transporter protein, are provided by Dr. L. Greenberger, Wyeth Research (Rabindran, S. K., He, H., Singh, M., Brown, E., Collins, K. I., Annable, T., and Greenberger, L. M. Reversal of a novel multidrug resistance mechanism in human colon carcinoma cells by fumitremorgin C. Cancer Res., 58: 5850-5858,1998); (b) parental HL-60 human promyelocytic leukemia line and derived HL-60/ADR, which expresses the MRP1 drug transporter protein, are provided by Dr. M. Center, University of Kansas (McGrath, T., and Center, M. S. Adriamycin resistance in HL60 cells in the absence of detectable P-glycoprotein. Biochem. Biophys. […] J. Biol. Chem., 261: 7762-7770, 1986) via Dr. L. Greenberger, Wyeth Research.
The SRB standard cytotoxicity assay is done according to previously reported methods (Discafani, C. M., Carroll, M. L., Floyd Jr., M. B. F., Hollander, I. J., Husain, Z., Johnson, B. D., Kitchen, D., May, M. K., Malo, M. S., Minnick Jr., A. A., Nilakantan, R., Shen, R., Wang Y-F., Wissner, A., Greenberger, L. M. Irreversible inhibition of epidermal growth factor receptor tyrosine kinase with in vivo activity by N-[4-[3-bromophenyl)amino]-6-quinaxolinyl]-2-butynamide (CL-387,785). Biochem. Pharmacol., 57: 917-925, 1999). Briefly, cells are plated in 100 μL of medium in 96-well flat-bottom microtiter plates in the morning of day 1 and allowed to adhere to the plates for 2-6 hr. Compounds are serially diluted into medium as 2× stocks and 100 μL of these stocks are added to cells in duplicate. Compounds are incubated with cells for 3 days. At the end of the incubation period the sulforhodamine B (SRB) assay, which measures protein content as an assessment of cell survival, is performed as described previously (Skehan, P., Storeng, R., Scudiero, D., Monks, A., McMahon, J., Vistica, D., Warren, J. T., Bokesch, H., Kenney, S., Boyd, M. R. New calorimetric cytotoxicity assay for anticancer-drug screening. J. Natl. Cancer Inst., 82:1107-1112, 1990) with some modifications. Medium is gently decanted from plates and replaced with 200 μL per well of cold serum-free medium containing a final concentration of 10% trichloroacetic acid. The plates are incubated for 1 hr at 40, washed 5 times in cold distilled water, and air-dried overnight. […] Absorbance is read on a Victor V multi-label plate reader (Perkin Elmer, Gaithersburg, Md.). […]

KB-V1 cells = assay: SRB cytotoxicity test procedure with KB-V1 cells; format: cell-based, human; settings: SRB assay
From the text: as §1
The SRB standard cytotoxicity assay is done according to previously reported methods (Discafani, C. M., Carroll, M. L., Floyd Jr., M. B. F., Hollander, I. J., Husain, Z., Johnson, B. D., Kitchen, D., May, M. K., Malo, M. S., Minnick Jr., A. A., Nilakantan, R., Shen, R., Wang Y-F., Wissner, A., Greenberger, L. M. Irreversible inhibition of epidermal growth factor receptor tyrosine kinase with in vivo activity by N-[4-[3-bromophenyl)amino]-6-quinaxolinyl]-2-butynamide (CL-387,785). Biochem. Pharmacol., 57: 917-925, 1999). Briefly, cells are plated in 100 μL of medium in 96-well flat-bottom microtiter plates in the morning of day 1 and allowed to adhere to the plates for 2-6 hr. Compounds are serially diluted into medium as 2× stocks and 100 μL of these stocks are added to cells in duplicate. Compounds are incubated with cells for 3 days. At the end of the incubation period the sulforhodamine B (SRB) assay, which measures protein content as an assessment of cell survival, is performed as described previously (Skehan, P., Storeng, R., Scudiero, D., Monks, A., McMahon, J., Vistica, D., Warren, J. T., Bokesch, H., Kenney, S., Boyd, M. R. New calorimetric cytotoxicity assay for anticancer-drug screening. J. Natl. Cancer Inst., 82:1107-1112, 1990) with some modifications. Medium is gently decanted from plates and replaced with 200 μL per well of cold serum-free medium containing a final concentration of 10% trichloroacetic acid. The plates are incubated for 1 hr at 40, washed 5 times in cold distilled water, and air-dried overnight. The fixed cells are stained for 10 min with 80 μL per well of 0.04% SRB solution prepared in 1% glacial acetic acid. Staining solution is decanted, plates are washed 5 times in 1% glacial acetic acid, and then air-dried until completely dry. Stained cell product is dissolved in 150 μL per well of 10 mM Trizma Base with shaking for 20 minutes. Absorbance is read on a Victor V multi-label plate reader (Perkin Elmer, Gaithersburg, Md.).
The KB lines express different amounts of the P-glycoprotein (MDR1) membrane pump which produces resistance to the action of many cytotoxic compounds, including paclitaxel and vincristine. The parental KB line expresses no P-glycoprotein, KB-8-5 expresses moderate levels of the protein, and KB-V1 expresses very high levels.

Compound CN(C)CCCOc1cc(F)c(-c2c(Cl)nc3nccn3c2NCC(F)(F)F)c(F)c1 [Example 4, 7-chloro-6-{4-[3-(dimethylamino)propoxy]-2,6-difluorophenyl}-N-(2,2,2-trifluoroethyl)imidazo[1,2-a]pyrimidin-5-amine] has an IC50 (COLO 205 cells) of 88 nM, a melting point of 52 to 55 °C and an IC50 (KB cells) of 24 nM. The IC50 (KB-8-5 cells; Homo sapiens, KB 8.5 cells, means of 2 independent experiments) was 59 nM, the “Ratio 8.5/KB” value (KB-8-5 cells; IC50 on KB 8.5 cells/IC50 on KB cells) was 2.5 and the IC50 (KB-V1 cells; Homo sapiens, KB-V1, KB VI cells, means of 2 independent experiments) was 2390 nM. The “Ratio VI/KB” value (KB-V1 cells; IC50 on KB VI cells/IC50 on KB cells) was 99.
